Data: patent US7993687B2, “Compositions and methods for management of diabetes” (priority 2006, dated 2011)

Columns and labels:
Assay type in all cases: cell-based, rat
[1] = tested on: p42/44 MAPK (Thr202/Tyr204); assay: Western blot of MAPK phosphorylation in H4IIE cells; settings: for p42/44 P-MAPK (Thr202/Tyr204) phosphorylation, stimulation (fold) relative to the control / phosphorylation of MAPK, stimulation (fold) relative to the control (Table 6): 6 min, one experiment; for effect of the inhibitor on insulin- and BWE-stimulated phosphorylation of MAPK: preincubation with inhibitor, then insulin or BWE for 6 minutes
Experimental: Tissue culture media, antibiotics, fetal bovine serum (FBS) and Nunc tissue culture plates were purchased from Invitrogen Canada Inc. (Burlington, Ontario, Canada, L7P 1A1). Insulin (Sigma-Aldrich Canada Ltd., Oakville, Ontario, Canada, L6H 6J8) was dissolved in water and added directly to cells at a concentration of 250 nM unless otherwise indicated. The BWE was prepared and analyzed as described in Example 1. Two μL of the BWE were added directly to cells unless otherwise indicated. […] Myo-inositol (Sigma-Aldrich Canada Ltd.) and D-chiro-inositol (Industrial Research Ltd., Wellington, New Zealand) were dissolved in water at an equal concentration to the amounts present in the BWE (Table 3) and 2 μL of each solution (0.1% v/v final concentration) was added directly to cells.
(§1) Rat H4IIE hepatoma cells (American Type Culture Collection, CRL 1548) were cultured following the method disclosed by Yau et al., (1998, Eur. J. Biochem. 253: 91-1). The H4IIE cells were maintained in α-modified Eagle's media containing 10% FBS, 2 mM glutamine, 25 μg·mL^−1 streptomycin and 25 units·mL^−1 penicillin. Cells were plated and grown to 70% confluence. All cells were placed into serum-free medium for 72 h before addition of stimulating agents to ensure entry into a quiescent state.
(§2) Cultures of quiescent H4IIE cells or quiescent FAO cells were placed into 12-well culture dishes containing 2 mL serum-free medium, and then stimulated by direct addition of the inhibitors listed in Table 1 (volumes of additions were 10 μL or less) without replacing the medium. […] The cells in 12-well culture dishes were incubated with stimulating agents for 6 minutes and rinsed with phosphate buffered saline (PBS; 0.9% NaCl, 0.1 M Na3PO4, pH 7.1).
(§3) Cellular protein extracts were prepared by addition of 200 μL 2×SDS/gel loading buffer (0.125 M Tris pH 6.8, 2% SDS, 10% glycerol) to H4IIE cells in 12-well culture dishes. The samples were briefly sonicated, and protein content measured using the BCA protein assay kit. Aliquots containing equal amounts of protein were mixed with bromophenol blue (0.5% (w/v) final concentration) and 2-mercaptoethanol (5% (v/v) final concentration), heated at 95° C. and loaded onto 7.5% or 10% polyacrylamide gels. […] Primary antibodies (diluted 1:1000 in 3% (w/v) BSA) were incubated with the membrane for 60 min at 22° C. Membranes were subsequently washed four times and incubated for an additional 60 min at 1 8-22° C. in 1% (w/v) BSA-TBST with diluted HRP-coupled secondary antibody (1:10 000). HRP was detected using the ECL chemiluminescent system after the membranes had been washed four times.
Quantification of data obtained on film (Kodak X-omat) was accomplished with a GS800 imaging densitometer (Bio-Rad Laboratories) under nonsaturating conditions with local background subtraction. Although multiple exposures were acquired to ensure the absence of film saturation, the experimental figures typically show longer exposures selected specifically for visual presentation and not necessarily used for data analysis. Graphical data are presented as means±SE for a minimum of three replicate samples. […]

PDK-1 (Ser241) = assay: Western blot of PDK-1 phosphorylation in H4IIE cells; settings: 6 min, one experiment
Experimental: (§4) Tissue culture media, antibiotics, fetal bovine serum (FBS) and Nunc tissue culture plates were purchased from Invitrogen Canada Inc. (Burlington, Ontario, Canada, L7P 1A1). Insulin (Sigma-Aldrich Canada Ltd., Oakville, Ontario, Canada, L6H 6J8) was dissolved in water and added directly to cells at a concentration of 250 nM unless otherwise indicated. The BWE was prepared and analyzed as described in Example 1. Two μL of the BWE were added directly to cells unless otherwise indicated. This amount was chosen on the basis of equivalence to insulin. Myo-inositol (Sigma-Aldrich Canada Ltd.) and D-chiro-inositol (Industrial Research Ltd., Wellington, New Zealand) were dissolved in water at an equal concentration to the amounts present in the BWE (Table 3) and 2 μL of each solution (0.1% v/v final concentration) was added directly to cells.
as §1, §2, §3
(§5) Quantification of data obtained on film (Kodak X-omat) was accomplished with a GS800 imaging densitometer (Bio-Rad Laboratories) under nonsaturating conditions with local background subtraction. Although multiple exposures were acquired to ensure the absence of film saturation, the experimental figures typically show longer exposures selected specifically for visual presentation and not necessarily used for data analysis. Graphical data are presented as means±SE for a minimum of three replicate samples.

Raf (Ser259) = assay: Western blot of Raf phosphorylation in H4IIE cells; settings: 6 min, one experiment
Experimental: as §4, §1, §2, §3, §5

H4IIE cells = assay: 3H-deoxyglucose uptake by H4IIE cells; settings: H4IIE cells; pre-incubated with inhibitor, then insulin
Experimental: Tissue culture media, antibiotics, fetal bovine serum (FBS) and Nunc tissue culture plates were purchased from Gibco-BRL (division of Invitrogen Canada Inc.). Insulin (Sigma-Aldrich Canada Ltd.) was dissolved in water and added directly to cells at a final concentration of 10^−6 M. The buckwheat extract was prepared and analyzed as in Example 1. Two μL of the buckwheat extract were added directly to cells unless otherwise indicated. Myo-inositol (Sigma Aldrich Canada Ltd.) and D-chiro-inositol (Industrial Research Ltd.) were dissolved in water at an equal concentration to the amounts present in the BWE (Table 3) and 2 μL of each solution was added directly to cells.
as §1, with “as described in Example 3. Briefly,” for “following the method disclosed by Yau et al., (1998, Eur. J. Biochem. 253: 91-1). The H4IIE”, “50” for “25”, “50 μg·mL^−1” for “25 units·mL^−1”
^3H-deoxyglucose uptake was assayed using the method disclosed by Harrison et al. (1990, J. Biol. Chem. 265(10):5793-5801). Quiescent H4IIE cells, in 24-well culture dishes containing 1 mL serum-free medium, were washed three times with physiological salt solution (PSS) ([…], pH 7.4). Cells were placed into 0.5 mL PSS and pre-incubated with inhibitors for 10 minutes prior to the 20 minute stimulation with treatments (insulin, BWE, D-CI, MI). For all experiments, insulin was added at a concentration of 10^−6 M whereas 2 μL volumes of the BWE, D-CI, or MI (0.4% v/v final concentration) were added to cells unless otherwise indicated in figures. Sugar uptake was initiated by the addition of ^3H-deoxyglucose to a final assay concentration of 0.1 mM glucose (1 mCi/mL) and the cells were subsequently incubated for 5 minutes at 37° C. After two rapid washes with ice-cold PSS (0.5-1 mL/well), the cells were solubilized with 0.4 mL of 0.1% SDS, and ^3H was detected in 3 mL of EcoLume scintillant (MP Biomedicals Inc., Costa Mesa, Calif., USA, 92626).
Statistical significance between treatments was determined by one-way ANOVA and by Duncan's multiple range test for means testing (SAS v.9.1, SAS Institute Inc., Cary, N.C.). […] Data are expressed as the mean±SE.
Since insulin has the same effect, we compared the ability of BWE, insulin and two insulin-mimetic compounds (D-CI and MI) to stimulate glucose uptake by H4IIE hepatoma cells. […] Radio-labelled deoxyglucose was added to the medium and glucose uptake was determined by the detection of ^3H in cells.
Fractions (˜1.0 ml) from each solvent extraction were collected and assayed for their effects on MAPK activation as described in Example 3. The effects of selected fractions, alone or in combination with insulin, on the uptake of labelled glucose were assessed following the methods described in Example 4. […] The effects of the solvent fractions on H4IIE cells were assessed with 20-min exposure periods after which, sugar uptake was initiated by the addition of ^3H-deoxyglucose to a final assay concentration of 0.1 mM glucose (1 mCi/mL) and the cells were subsequently incubated for 5 minutes at 37° C. After two rapid washes with ice-cold PSS (0.5-1 mL/well), the cells were solubilized with 0.4 mL of 0.1% SDS, and ^3H was detected in 3 mL of EcoLume scintillant. […]

[2] = insulin-stimulated, 15-min preincubation with the inhibitor (None = insulin alone)
[3] = BWE-stimulated, 15-min preincubation with the inhibitor (None = BWE alone)
[4] = BWE treatment, 15-min preincubation with PKA/PKC inhibitor (None = BWE alone)
[5] = insulin treatment, 15-min preincubation with PKA/PKC inhibitor (None = insulin alone)

Compound | p42/44 P-MAPK (Thr202/Tyr204) phosphorylation, stimulation (fold) relative to the control [1, 2] | PDK-1 (Ser241) phosphorylation, stimulation (fold) relative to the control (PDK-1 (Ser241); [2]) | Raf (Ser259) phosphorylation, stimulation (fold) relative to the control (Raf (Ser259); [2]) | effect of the inhibitor on insulin- and BWE-stimulated phosphorylation of MAPK [1] | p42/44 P-MAPK (Thr202/Tyr204) phosphorylation, stimulation (fold) relative to the control [1, 3] | PDK-1 (Ser241) phosphorylation, stimulation (fold) relative to the control (PDK-1 (Ser241); [3]) | Raf (Ser259) phosphorylation, stimulation (fold) relative to the control (Raf (Ser259); [3]) | phosphorylation of MAPK, stimulation (fold) relative to the control (Table 6) [1, 4] | phosphorylation of MAPK, stimulation (fold) relative to the control (Table 6) [1, 5] | further results
CC(C)(C)c1cc(C=C(C#N)C#N)cc(Br)c1O [AG1024] | 16.74 fold | 2.30 fold | 0.26 fold | – | – | – | – | – | – | –
Cc1ccc(-c2nn(C(C)(C)C)c3ncnc(N)c23)cc1 [PP1] | – | – | – | required for stimulation of MAPK by the BWE only | – | – | – | – | – | –
C[C@H]1CCC/C=C/[C@@H]2C[C@H](O)C[C@H]2[C@H](O)/C=C/C(=O)O1 [brefeldin, Brefeldin A] | – | – | – | not involved in this process | – | – | – | – | – | –
COc1ccc2c(c1)CC[C@@H]1[C@@H]2CC[C@]2(C)[C@@H](NCCCCCCN3C(=O)C=CC3=O)CC[C@@H]12 [U73] | 13.4 fold | 2.30 fold | 0.99 fold | – | 8.6 fold | 0.49 fold | 0.12 fold | – | – | –
COc1ccc2c(c1)c1c3c(c4c5ccccc5n(C)c4c1n2CC(O)CN(C)C)C(=O)NC3=O (stereo not shown) [Go7874] | – | – | – | – | – | – | – | 3.10 fold | 2.60 fold | –
Cn1c2ccccc2c2c3c(c4c5ccccc5n(CCC#N)c4c21)CNC3=O [Go6976] | – | – | – | – | – | – | – | 4.32 fold | 4.68 fold | –
O=c1cc(N2CCOCC2)oc2c(-c3ccccc3)cccc12 [LY294002] | 10.4 fold | 1.40 fold | 0.22 fold | – | 13.1 fold | 0.61 fold | 0.08 fold | – | – | –
CC(=O)c1c(O)c(C)c(O)c(Cc2c(O)c3c(c(C(=O)/C=C/c4ccccc4)c2O)OC(C)(C)C=C3)c1O [Rottlerin] | – | – | – | – | – | – | – | 3.85 fold | 2.46 fold | –
1-butanol | – | – | – | required for stimulation of MAPK by insulin and the BWE | – | – | – | – | – | effect of the inhibitor on insulin-stimulated glucose uptake (FIG. 23) (H4IIE cells): decreased insulin-stimulated glucose uptake although the effect was not significant
N#C/C(=C/c1ccc(O)c(O)c1)C(=O)NCc1ccccc1 [AG490] | 16.4 fold | 1.91 fold | 0.13 fold | – | 12.9 fold | 0.89 fold | 0.16 fold | – | – | –
